In patent US20090048258A1, “Amide Compound” (priority 2005, published 2009) one finds IC50 and melting point data, which are given here for 9 compounds.

In one data set the target is T1, Human DGAT1 (Homo sapiens, UniProt O75907).
T1 construct: my translation of the primer: M-G-DYKDDDD-GDRGSSRRR) (N); made in house; host or cells: Sf9 insect cells (recombinant baculovirus BAC-DGAT1, pFASTBAC1); microsome fraction
T1 sequence (O75907 1-488): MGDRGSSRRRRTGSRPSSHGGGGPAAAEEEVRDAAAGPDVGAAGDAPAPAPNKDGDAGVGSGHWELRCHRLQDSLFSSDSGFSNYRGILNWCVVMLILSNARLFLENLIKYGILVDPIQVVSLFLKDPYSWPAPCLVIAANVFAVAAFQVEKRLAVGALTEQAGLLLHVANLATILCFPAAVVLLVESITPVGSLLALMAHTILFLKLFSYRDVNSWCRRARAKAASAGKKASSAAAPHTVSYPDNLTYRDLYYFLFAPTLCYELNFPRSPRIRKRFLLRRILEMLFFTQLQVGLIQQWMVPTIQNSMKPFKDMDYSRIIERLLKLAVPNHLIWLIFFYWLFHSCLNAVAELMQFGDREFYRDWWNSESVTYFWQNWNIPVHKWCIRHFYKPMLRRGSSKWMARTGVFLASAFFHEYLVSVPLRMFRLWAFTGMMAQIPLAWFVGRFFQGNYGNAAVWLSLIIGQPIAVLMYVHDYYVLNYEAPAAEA
As to the kind of experiment: DGAT inhibitory activity: [14C]-triglyceride synthesis by DGAT1 high expression Sf9 microsome. The format is biochemical. Conditions: Table 1, 25 μM dioleoylglycerol, 25 μM [14C]-Oleoyl-CoA, 32° C., 15 min, read-out: DGAT inhibitory activity (according to IC50). Put shortly: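 DGAT1 was overexpressed from recombinant baculovirus in Sf9 cells, and microsomes from these cells were the enzyme source. Reactions ran in 100 mM Tris-HCl pH 7.5, 250 mM sucrose, 150 mM MgCl2 and 0.01% BSA. [14C]-triglyceride was extracted into chloroform, separated by TLC and quantified by imaging plate, with inhibition calculated against control and blank (no microsome) counts.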
As for `CCOc1ccc(C(=O)CCC(=O)Nc2sc(-c3ccccc3)nc2-c2ccccc2)cc1OCC` [Example 16, 4-(3,4-diethoxyphenyl)-N-(2,4-diphenyl-1,3-thiazol-5-yl)-4-oxobutanamide], the IC50 (as a rule, the concentration needed to halve the response being measured) is 50 to 500 nM.

Staying with this data set, now noted: Table 2, 25 μM dioleoylglycerol, 25 μM [14C]-Oleoyl-CoA, 32° C., 15 min, read-out: DGAT inhibitory activity (according to IC50).
Regarding `O=C(CCC(=O)c1ccc2c(c1)CCO2)Nc1cc(-c2ccccc2O)cc(-c2ccccc2)n1` [Example 177, 4-(2,3-dihydro-1-benzofuran-5-yl)-N-[4-(2-hydroxyphenyl)-6-phenylpyridin-2-yl]-4-oxobutanamide], the IC50 was in the range of 10 to 50 nM.
Take `COc1ccccc1-c1cc(NC(=O)CCC(=O)c2ccc3c(c2)CCO3)nc(-c2ccccc2)c1` [Example 178, 4-(2,3-dihydro-1-benzofuran-5-yl)-N-[4-(2-methoxyphenyl)-6-phenylpyridin-2-yl]-4-oxobutanamide]: the half-inhibitory concentration (IC50) lay within 10 to 50 nM.
On to `O=C(CCC(=O)c1ccc2c(c1)CCO2)Nc1cc(-c2ccccc2CO)cc(-c2ccccc2)n1` [Example 179, 4-(2,3-dihydro-1-benzofuran-5-yl)-N-{4-[2-(hydroxymethyl)phenyl]-6-phenylpyridin-2-yl}-4-oxobutanamide], for which the half-inhibitory concentration (IC50) lay within 50 to 500 nM.
Still for that read-out and setting: with `O=C(CCC(=O)c1ccc2c(c1)CCO2)Nc1cc(-c2ccccc2C(=O)O)cc(-c2ccccc2)n1` [Example 180, 2-(2-{[4-(2,3-dihydro-1-benzofuran-5-yl)-4-oxobutanoyl]amino}-6-phenylpyridin-4-yl)benzoic acid] the figure was 500 to 10000 nM; with `COc1cc(-c2cc(NC(=O)CCC(=O)c3ccc4c(c3)CCO4)nc(-c3ccccc3)c2)ccc1O` [Example 181, 4-(2,3-dihydro-1-benzofuran-5-yl)-N-[4-(4-hydroxy-3-methoxyphenyl)-6-phenylpyridin-2-yl]-4-oxobutanamide], 10 to 50 nM; with `COc1cc(-c2cc(NC(=O)CCC(=O)c3ccc4c(c3)CCO4)nc(-c3ccccc3)c2)cc(OC)c1OC` [Example 182, 4-(2,3-dihydro-1-benzofuran-5-yl)-4-oxo-N-[6-phenyl-4-(3,4,5-trimethoxyphenyl)pyridin-2-yl]butanamide], 500 to 10000 nM.
For `Cc1cc(-c2cc(NC(=O)CCC(=O)c3ccc4c(c3)CCO4)nc(-c3ccccc3)c2)cc(C)c1O` [Example 183, 4-(2,3-dihydro-1-benzofuran-5-yl)-N-[4-(4-hydroxy-3,5-dimethylphenyl)-6-phenylpyridin-2-yl]-4-oxobutanamide], the IC50 was 50 to 500 nM.
As to `CCCCCC/C=C/c1cc(NC(=O)CCC(=O)c2ccc3c(c2)CCO3)nc(-c2ccccc2)c1` [Example 184, 4-(2,3-dihydro-1-benzofuran-5-yl)-N-{4-[(1E)-octa-1-en-1-yl]-6-phenylpyridin-2-yl}-4-oxobutanamide], the IC50 fell in the range of 500 to 10000 nM.

Tested on in the next data set: not given
Test: not given
Conditions: not given
On to `CCOc1ccc(C(=O)CCC(=O)Nc2sc(-c3ccccc3)nc2-c2ccccc2)cc1OCC` [Example 16, 4-(3,4-diethoxyphenyl)-N-(2,4-diphenyl-1,3-thiazol-5-yl)-4-oxobutanamide], for which the melting point (as a rule, the temperature of the solid-liquid transition) was 139 to 140 °C.
